Three substances from article doi:10.1101/2025.08.17.668569v1 (bioRxiv, 2025) can be followed below.

One data set in a line: Solubility in water. In kind it is physicochemical.
For data set [1], the system named is 4T1 murine triple-negative breast cancer cells. The experiment in a line: LDH assay. In kind it is cell-based.
The subject of data set [2] is U2OS human osteosarcoma cells. As to the kind of experiment: LDH assay, U2OS cells. The data set is classed as cell-based. As to conditions: read-out: EC50 U2OS, Fig. 2B, 2 h, representative of N = 3.
Data set [3] in a line: Half-life in murine serum. The data set is classed as in vitro ADME. Particulars: mouse.
In data set [4] the test system is HepG2 human liver cancer cells. As to the kind of experiment: LDH assay, HepG2 cells. In kind it is cell-based. Particulars: read-out: EC50 HepG2, Fig. 2B, 2 h, representative of N = 3.
The test system of data set [5] is NCI-60 human tumor cell lines (59 cancer cell lines). As to conditions: 48 h.
Data set [6] deals with Panc10.05 human pancreatic cancer cells. As to the kind of experiment: LDH assay, Panc10.05 cells. Particulars: read-out: EC50 Panc10.05, Fig. 2B, 2 h, representative of N = 3. The data set is classed as cell-based.
The test system of data set [7] is CT2A murine glioblastoma cells. The experiment in a line: LDH assay, CT2A cells. The data set is classed as cell-based. As to conditions: read-out: EC50 CT2A, Fig. 2A, 2 h, representative of N = 3.
Data set [8] concerns MCA205 murine fibrosarcoma cells. The experiment in a line: LDH assay, MCA205 cells. The data set is classed as cell-based. Particulars: read-out: EC50 MCA205, Fig. 2A, 2 h, representative of N = 3.
For another data set, the system named is SUM149 cells. As to the kind of experiment: LDH assay, SUM149 cells. In kind it is cell-based, human. Particulars: read-out: EC50 SUM149, Fig. 2B, 2 h, representative of N = 3.
Data set [9] relates to HT-29 human colorectal cancer cells. As to the kind of experiment: LDH assay, HT-29 cells. The data set is classed as cell-based. Particulars: read-out: EC50 HT-29, Fig. 2B, 2 h, representative of N = 3.
The subject of data set [10] is CT26 murine colon carcinoma cells. The experiment in a line: LDH assay, CT26 cells. In kind it is cell-based. As to conditions: read-out: EC50 CT26, Fig. 2A, 2 h, representative of N = 3.
Data set [11] has as its system B16-F10 murine melanoma cells. As to the kind of experiment: LDH assay, B16-F10 cells. In kind it is cell-based. As to conditions: read-out: EC50 B16-F10, Fig. 2A, 2 h, representative of N = 3.
Data set [12] concerns human melanoma cell line LOX IMVI. As to the kind of experiment: NCI-60 screen, LOX IMVI. In kind it is cell-based. Particulars: 48 h, SRB.
For a further data set, the system named is CT26 tumors. As to the kind of experiment: Tumor growth, CT26 murine colorectal model. In kind it is in vivo, BALB/c mice. As to conditions: intratumoral NF27.

Ends that are not written are not given here.

On to NGRKACLNPASIVKKIIKKILKI [NF11], for which, in the data set “Solubility in water” (lyophilized powder in water), the “solubility in water” value is “formed a hard gel in water”.

With NGRKAKKNAKKVKKIIKKIKKI-NH2 [NF22], the “oncolytic activity (LDH release)” value in data set [1] (initial screen, 4T1 cells) is on record as “no detectable oncolytic activity”.

As usually defined, the EC50 is the concentration giving half of the maximal effect. The half-life is how long it takes for the measured level to halve. Low values mean rapid decline, high ones slow decline. A word on the GI50: it is the concentration at which growth is held to half of that of the control. A higher GI50 goes with lower sensitivity of the cells. The term solubility denotes the concentration that dissolves in the medium under given conditions. The low end stands for little dissolved substance, the high end for much dissolved substance. For the substance NGRKAKLNPASIVKKIIKKILKS-NH2 [NF27], the EC50 in data set [2] was determined as 11.5 µM; in data set [4], 27.7 µM; in [6], 21.3 µM; in data set [7], 14.7 µM; in data set [8], 10.5 µM; in the data set on SUM149 cells it was 6.6 µM. Moreover, the EC50 in [9] is 24 µM; in data set [10], 4.4 µM; in [11], 10.9 µM; in data set [1] (read-out: EC50 4T1, Fig. 2A, LDH assay, 2 h, representative of N = 3) it was 12 µM. Also, the half-life in data set [3] stood at 29 min. For the same substance, the GI50 is less than 10 µM in [5] and 26.3 µM in data set [12]. Besides, in “Solubility in water” (water), the solubility was not below 40 mM. Further, the “side effects in murine tumor models” value in the data set with CT26 tumors is on record as “no observable side effects”.
